row,Structure (SMILES),melting point
1,CCC(COCc1cc(OC)c(O)c(OC)c1)(c1cccs1)N(C)C (configuration not stated),126 to 127 °C
2,COc1ccccc1C=C1NC(=S)NC1=O,234 to 235 °C
3,CCCCCCCCCCCCCCCCC1CC(=O)N(NC(=O)CCc2cc(C(C)(C)C)c(O)c(C(C)(C)C)c2)C1=O (configuration not stated),85 °C
4,O=C(O)Cc1ccc2cc(OCc3ccc4ccccc4n3)ccc2c1,199 to 202 °C
5,CCN(CC)CCNc1ccc(CNc2ccccc2)c2sc3ccccc3c(=O)c12,133 to 135 °C
6,Cc1cc(Cl)n2nc(CN=[N+]=[N-])nc2n1,130 to 132 °C
7,CCCNc1nc(N)nc(-c2ccccc2)c1-c1ccc(=O)n(C(C)C)n1,209 to 212 °C
8,COC(=O)C1=C(C)NC(C)=C(C(=O)OCCCCCCCCN)C1c1cccc([N+](=O)[O-])c1 (configuration not stated),129 to 131 °C
9,CCN(C/C=C/C#CC(C)(C)C)Cc1cccc(N(C)Cc2cccc(-c3ccsc3)c2)c1,51 to 52 °C
10,COc1cc(Nc2c(C#N)cnc3cc(-c4ccc(CO)cc4)sc23)c(Cl)cc1Cl,239 to 240 °C
11,COc1cc(CC(=O)NCCOCc2ccc(C)c(C)c2)ccc1OCCN,60 to 62 °C
12,COc1ccc(C2CCN(C)CC2)cc1Nc1ncc2ccc(-c3ccccc3OC)n2n1,64 to 69 °C
13,CN1CC(C(=O)CN2CCOCC2)CC2c3cccc4[nH]cc(c34)CC21 (configuration not stated),178 to 180 °C
14,Cc1nc(Cl)c([N+](=O)[O-])c(N(c2ccccc2)c2ccccc2)n1,128 to 130 °C
15,Cc1cc2c(c(C)c1N)C(c1ccc(C(C)C)cc1)CO2 (configuration not stated),53 to 55 °C
16,CCC(=O)SCCNC(=O)CCNC(=O)OCc1ccccc1,77 to 104 °C
17,CC(=O)OC1C(C)OC(OC(=N)C(Cl)(Cl)Cl)C(OC(C)=O)C1OC(C)=O (configuration not stated),60 to 63 °C
18,Sc1nccn1Cc1ccc(Cl)cc1,187 to 189 °C
19,CN(C)Cc1c[nH]c2ccc(CCS(=O)(=O)N(C)C)cc12,156 to 159 °C
20,CN(C)C(=S)C1CC(C)(C)Oc2ccc([N+](=O)[O-])cc21 (configuration not stated),158 to 160 °C
21,CC1(C)Oc2ccc(OC(F)(F)F)cc2[C@@H](NC(=O)c2ccc(C(F)(F)F)cc2[N+](=O)[O-])[C@@H]1O,60 to 65 °C
22,CS(=O)(=O)c1ccc(-n2cnc(Cl)c2-c2ccc(Cl)c(Cl)c2)cc1,156 to 157 °C

row,Structure (SMILES),melting point
1,COc1cc2c(c(Cl)c1Cl)S(=O)(=O)C(c1ccccc1)=C2C,197 to 199 °C
2,c1cc(N2CCNCC2)c2nccnc2c1,106 to 108 °C
3,CNC(=O)C(Cc1ccc(OC)cc1)NC(=O)C(CC(C)C)C(S)CC(=O)NCC(=O)OC(C)(C)C (configuration not stated),223 to 226 °C
4,C=CCOC1CC2C3CCC4=CC(=O)CCC4(C)C3(F)C(O)CC2(C)C1(O)C(=O)CCl (configuration not stated),224 to 225 °C
5,COc1cc(OCc2c(C)noc2C)c(C=CC(=O)c2ccc(C(=O)O)cc2)cc1-c1cccs1,213 to 215 °C
6,Nc1cc2ccncc2c2sc3ccccc3c12,220 to 225 °C
7,Clc1ccc2c(c1)C(c1ccsc1)=NCC1COCCN21 (configuration not stated),207 to 212 °C
8,COc1ccc(CC#N)c(Cl)c1Cl,118 to 119 °C
9,CC(C)CC(N=O)C(=O)NC(CC(C)C)C(=O)O (configuration not stated),134 to 139 °C
10,O=C(c1ccccc1)N1Cc2ccccc2Oc2ccc(Cl)cc21,103 to 106 °C
11,COc1ccc(-c2cncc(OC3SCC(O)C(O)C3O)c2)c(Cl)c1 (configuration not stated),218 °C
12,CCCCCC(=O)Nc1ccc2scc(Cc3ccc(C(=O)O)cc3OC)c2c1,234 to 235 °C
13,O[C@@H]([C@H](O)[C@@H](COc1ccccc1)OCc1ccccc1)[C@@H](COc1ccccc1)OCc1ccccc1,80 °C
14,N#Cc1cnc2ccc(N)cc2c1Nc1ccc(F)c(Br)c1,210 to 212 °C
15,COc1ccccc1[C@@]1(O)[C@H](O)CC(c2ccccc2)(c2ccccc2)[C@@H]2CN(C(=O)Cc3cccc4ccccc34)C[C@@H]21 (racemic),188 to 190 °C
16,CCc1cccc(C=CC(=O)CCCc2ccccc2)c1NC(=O)CC1c2ccccc2Oc2ccccc21,168 to 170 °C
17,Cc1c(CC(C)(C)C(=O)O)n(Cc2ccc(Cl)cc2)c2ccc(OCc3cccc(-c4ccccc4)n3)cc12,137 to 139 °C
18,c1cncc(-c2ccnc(Nc3cccc(-n4ccnc4)c3)n2)c1,95 to 120 °C
19,Oc1ccc2c(c1)OCC(c1ccccc1)C2c1ccc(OCCN2CCCCC2)cc1 (configuration not stated),168 to 170 °C
20,CCOc1c(Nc2cccc(C3C(C(=O)OC)=C(C)NC(C)=C3C(=O)OC)c2)c(=O)c1=O,249 to 252 °C
21,CC(C)Cn1cc(C(=O)Nc2nccs2)c2ccc(Cl)cc21,200 to 202 °C
22,Cc1csc(-c2ccc3c(c2)c2cc(-c4ccc(Cl)cc4Cl)c(=O)n(C)c2n3C)n1,255 to 257 °C

# The remaining lines, values ahead:
row,melting point,Structure (SMILES)
1,110 to 112 °C,OCc1ccccc1CCCc1cc2c(cc1O)CCO2
2,277 to 278 °C,NC(=O)c1cn2c(nc1=O)CCC2
3,126 to 130 °C,O=C(O)CC(NC(=O)C1CCCN2C(=O)CCC(NC(=O)c3ccccc3)C(=O)N12)C(=O)COC(=O)c1c(Cl)cccc1Cl (configuration not stated)
4,200 to 201 °C,CCOC(=O)c1cn(Cc2ccccc2OC)c2sc(-c3ccc(OC)cc3)c(CBr)c2c1=O
5,163 °C,CC(C)c1ccc(NC(=O)C2CCCc3ccccc32)cc1 (configuration not stated)
6,119 °C,CC(=O)OCCOCn1c(Cl)nc2c(Cl)c(Cl)c(Cl)c(Cl)c21
7,> 200 °C,O=C(O)C1CCc2c([nH]c3ccc(F)cc23)C1 (configuration not stated)
8,146 °C,Cc1cccc(NC(=O)CN2c3ccc(Cl)c(Cl)c3[C@@H]3CCN(C(=O)OC(C)(C)C)CC[C@@H]32)c1C (relative stereo)
9,210 to 215 °C,CC(C)C1COCc2nc3c(N)nc4cc(O)ccc4c3n21 (configuration not stated)
10,224 to 230 °C,Nc1nc2nc(NCCCN3CCOCC3)ncc2cc1-c1c(Cl)cccc1Cl
11,> 250 °C,Sc1nc2ncccc2[nH]1
12,178 °C,Nc1sccc1C(=O)c1ccc(F)cc1
13,115 to 119 °C,CN(C)C(=NC(=Nc1ccccc1)N1CCOCC1)N(C)C
14,52 to 58 °C,CC(C)OC(=O)C1CCCN1S(=O)(=O)c1ccc(N2CCC(NCC(O)c3ccc(O)c(NS(C)(=O)=O)c3)CC2)cc1 (configuration not stated)
15,142 to 143 °C,Cc1c(NC(=O)c2ccc(OC[C@@H]3CCCO3)cc2)ccc2cc(CNCC(C)C)cnc12
16,188 to 192 °C,COc1ccc(C(=O)O)cc1NC(=O)C(CS)Cc1ccccc1 (configuration not stated)
17,133 to 135 °C,C/C=C/c1c(N)nc(-c2ccc(Cl)c(OC)c2F)nc1C(=O)OC
18,224 to 226 °C,COc1cc(C)nc(NC(=O)NS(=O)(=O)c2cccc3c2S(=O)(=O)C(C)C3)n1 (configuration not stated)
19,109 to 110 °C,COC(=O)C(=O)c1ccc(OCc2ccc3ccccc3n2)cc1
20,201 to 203 °C,O=C1CCC(N2C(=O)c3cccc(CNC(=O)Nc4ccc5ccccc5c4)c3C2=O)C(=O)N1 (configuration not stated)
21,119 to 120 °C,CCOC(=O)C=Cc1ccc([N+](=O)[O-])c(OC)c1
22,193 to 194 °C,COc1ccc(C(=O)N[C@H]2CCN(C)C[C@H]2c2ccc3c(c2)OCO3)cc1OC (relative stereo)
23,78 to 88 °C,COC(=O)c1c(C(F)F)nc(C(F)(F)F)c(C(O)c2cccs2)c1CC(C)C (configuration not stated)
24,138 to 140 °C,CC1=C(c2ccc(Cl)cc2)n2ncc(C#N)c2N(C(=O)CCl)C1
25,87 °C,Cc1cc(-c2cc(C(F)(F)F)n3nccc3n2)ccc1C(F)(F)F
26,207 to 208 °C,O=C1CCCc2ccc(OCCCCN3CCN(c4cccc5c4CCC5)CC3)nc2N1
27,230 °C,CCOC(=O)C1=CC(C(=O)c2cc(Cl)ccc2O)=CN2CCc3c([nH]c4ccc(OC)cc34)C12C(=O)OCC (configuration not stated)

row,melting point,Structure (SMILES)
1,57 °C,CC(Cc1ccc(C(=O)C(C)(C)O)cc1)C(=O)O (configuration not stated)
2,223 to 225 °C,Cc1nc(-n2ccc(OCc3ccccc3)cc2=O)sc1C(=O)NCc1ccc(F)cc1
3,154 to 156 °C,CCCn1c(=O)c2c(NC)n(C(=O)C(C)C)nc2n(Cc2cccc(Cl)c2)c1=O
4,228 °C,O=C(c1cc(=O)c2ccc(OCc3ccccc3)cc2[nH]1)N1CCC(Cc2ccccc2)CC1
5,69 to 70 °C,COC(=O)[C@H](CCCC(OC)OC)N1C(=O)c2ccccc2C1=O
6,158 to 159 °C,CC(C)(C)c1cc(SCCC(=O)NNC=O)cc(C(C)(C)C)c1O
7,53 to 54 °C,COC(=O)N1CCc2ccccc2CC1
8,107 to 108 °C,O=C1CCOc2ccc(OCc3ccccc3)cc21
9,108 to 109 °C,CSCS[C@H](C)[C@](O)(Cn1cncn1)c1ccc(F)cc1F
10,315 °C,O=C(O)c1ccccc1C(=O)c1cccc(NC(=O)c2ccn3c2CSC3c2cccnc2)c1 (configuration not stated)
11,99 to 120 °C,N=C(N)NC(=O)Cn1c(Cc2cccs2)ccc1-c1ccccc1
12,253 to 255 °C,O=c1c2c(c3cccnc3n1-c1ccccc1)OCCC2
13,173 to 177 °C,COC1=NC(=O)N(C2CCCCC2)S(=O)(=O)N1
14,114 to 116 °C,COCC1CN(c2ccc(C3CCC(=O)CC3)cc2)C(=O)O1 (racemic)
15,178 to 179 °C,Nc1ncc(S(=O)c2cccnc2)s1 (configuration not stated)
16,125 °C,O=C(NCc1ccc(F)cc1)c1nc2n(c(=O)c1OCc1ccccc1)CCN2Cc1ccccc1
17,178 to 181 °C,CCOC(=O)C=Cc1cn(C(=O)OC(C)(C)C)c2cnc(-n3cncn3)cc12
18,144 to 146 °C,CCN1CC(=O)N(c2ccc(Cl)cc2Cl)C1=S
19,> 300 °C,CC(=O)c1ccc2oc3nc(N)c(C(=O)O)cc3c(=O)c2c1
20,136 to 137 °C,CCS(=O)CCNC(=O)C1=C(C(=O)Nc2ccc(Cl)cc2F)CCCC1 (configuration not stated)
21,99 to 101 °C,Cc1cc(NC(=O)C2(C)CC2)ccc1OC(C)C
22,90 to 93 °C,CC(C)c1ncc2cc(Cl)nc(Cl)n12
23,250 °C,O=C1O[C@@H](CO)[C@H]2CCc3cc(O)ccc3N12 (relative stereo)
24,130 to 131 °C,O=C1c2ccccc2COc2ccc(CC(=O)N(O)C3CCCCC3)cc21
25,235 to 236 °C,N#Cc1cnn2c1N(C(=O)CCl)CC=C2c1cc(Cl)ccc1Cl
26,270 to 274 °C,O=C1c2cc3ccc4c(c3c(-c3ccncc3)c2C[NH+]1[O-])OCO4 (configuration not stated)
